Measurements reported in ChEMBL document CHEMBL5344442, “Antiviral Activity of Lipophilic Nucleoside Tetraphosphate Compounds” (J Med Chem, 2024).

Legend:
[1] = tested on: Human immunodeficiency virus 2; assay: Antiviral activity against HIV-2 ROD infected in human CEM/0 cells assessed as inhibition of virus-induced cytopathogenicity measured after 4 to 5 days by microscopic analysis; assay type: functional, organism-based; details: Human immunodeficiency virus 2, ROD, CCRF-CEM
[2] = Selectivity index, ratio of CC50 for cytotoxicity against human CEM/0 cells to EC50 for antiviral activity against HIV-2 ROD infected in human CEM/0 cells; assay type: toxicity, cell-based; details: read-out: Ratio CC50/EC50
[3] = tested on: Human immunodeficiency virus 1; assay: Antiviral activity against HIV-1 HE infected in human CEM/0 cells assessed as inhibition of virus-induced cytopathogenicity measured after 4 to 5 days by microscopic analysis; assay type: functional, organism-based; details: Human immunodeficiency virus 1, HE, CCRF-CEM
[4] = Half life of the compound in PBS buffer at pH 7.3 by RP-18-HPLC analysis; assay type: physicochemical
[5] = tested on: Human immunodeficiency virus 2; assay: Antiviral activity against HIV-2 ROD infected in human CEM/TK- cells assessed as inhibition of virus-induced cytopathogenicity measured after 4 to 5 days by microscopic analysis; assay type: functional, organism-based; details: Human immunodeficiency virus 2, ROD, CCRF-CEM
[6] = Lipophilicity of the compound assessed as retention time by RP-18-HPLC analysis; assay type: physicochemical
[7] = Drug metabolism assessed as d4TTP metabolite formation in presence of pig liver esterase by RP-18-HPLC analysis; assay type: ADME, Sus scrofa; details: isolated protein
[8] = Drug metabolism in human CEM/0 cells assessed as d4TTP metabolite formation by RP18-HPLC analysis; assay type: ADME, cell-based; details: ccrf-cem
[9] = Drug metabolism assessed as [hydroxy-[hydroxy-[hydroxy-[[(2S,5R)-5-(5-methyl-2,4-dioxo-pyrimidin-1-yl)-2,5-dihydrofuran-2-yl]methoxy]phosphoryl]oxy-phosphoryl]oxy-phosphoryl]oxy-octadecyl-phosphinic acid formation in presence of pig liver esterase by RP-18-HPLC analysis; assay type: ADME, Sus scrofa; details: isolated protein
[10] = Drug metabolism in human CEM/0 cells assessed as [hydroxy-[hydroxy-[hydroxy-[[(2S,5R)-5-(5-methyl-2,4-dioxo-pyrimidin-1-yl)-2,5-dihydrofuran-2-yl]methoxy]phosphoryl]oxy-phosphoryl]oxy-phosphoryl]oxy-octadecyl-phosphinic acid formation by RP18-HPLC analysis; assay type: ADME, cell-based; details: ccrf-cem
[11] = Drug metabolism in human CEM/0 cells assessed as d4TDP metabolite formation by RP18-HPLC analysis; assay type: ADME, cell-based; details: ccrf-cem
[12] = Cytotoxicity against human CEM/0 cells assessed as inhibition of cell proliferation; assay type: toxicity, cell-based, CCRF-CEM
[13] = Drug metabolism in PBS buffer assessed as d4TMP metabolite formation at pH 7.3 by RP-18-HPLC analysis; assay type: ADME
[14] = Drug metabolism in human CEM/0 cells assessed as half life of d4TTP by RP18-HPLC analysis; assay type: ADME, cell-based; details: ccrf-cem
[15] = Drug metabolism in citrate-stabilized human plasma assessed as d4T formation by RP-18-HPLC analysis; assay type: ADME, cell-free
[16] = Drug metabolism in citrate-stabilized human plasma assessed as [4-[[hydroxy-[hydroxy-[hydroxy-[hydroxy-[[(2S,5R)-5-(5-methyl-2,4-dioxo-pyrimidin-1-yl)-2,5-dihydrofuran-2-yl]methoxy]phosphoryl]oxy-phosphoryl]oxy-phosphoryl]oxy-phosphoryl]oxymethyl]phenyl]-decanoate formation by RP-18-HPLC analysis; assay type: ADME, cell-free
[17] = Drug metabolism in human CEM/0 cells assessed as [4-[[hydroxy-[hydroxy-[hydroxy-[hydroxy-[[(2S,5R)-5-(5-methyl-2,4-dioxo-pyrimidin-1-yl)-2,5-dihydrofuran-2-yl]methoxy]phosphoryl]oxy-phosphoryl]oxy-phosphoryl]oxy-phosphoryl]oxymethyl]phenyl]-decanoate formation by RP18-HPLC analysis; assay type: ADME, cell-based; details: ccrf-cem
[18] = Drug metabolism assessed as [4-[[hydroxy-[hydroxy-[hydroxy-[hydroxy-[[(2S,5R)-5-(5-methyl-2,4-dioxo-pyrimidin-1-yl)-2,5-dihydrofuran-2-yl]methoxy]phosphoryl]oxy-phosphoryl]oxy-phosphoryl]oxy-phosphoryl]oxymethyl]phenyl]-decanoate formation in presence of pig liver esterase by RP-18-HPLC analysis; assay type: ADME, Sus scrofa; details: isolated protein
[19] = Drug metabolism in human CEM/0 cells assessed as half life of d4T4P by RP18-HPLC analysis; assay type: ADME, cell-based; details: ccrf-cem
[20] = Drug metabolism assessed as d4T4P metabolite formation in presence of pig liver esterase by RP-18-HPLC analysis; assay type: ADME, Sus scrofa; details: isolated protein
[21] = Half life of the compound in human CEM/0 extracts by RP-18-HPLC analysis; assay type: ADME, CCRF-CEM; details: CEM/0 cell extracts
[22] = Stability of compound assessed as pig liver esterase mediated hydrolysis by measuring half life by RP-18-HPLC analysis; assay type: ADME, tissue-based, Sus scrofa
[23] = Drug metabolism in citrate-stabilized human plasma assessed as d4TTP formation by RP18-HPLC analysis; assay type: ADME, cell-free
[24] = Drug metabolism in citrate-stabilized human plasma assessed as d4TMP formation by RP18-HPLC analysis; assay type: ADME, cell-free
[25] = Drug metabolism in citrate-stabilized human plasma assessed as d4TDP formation by RP18-HPLC analysis; assay type: ADME, cell-free
[26] = Drug metabolism in citrate-stabilized human plasma assessed as [hydroxy-[hydroxy-[hydroxy-[[(2S,5R)-5-(5-methyl-2,4-dioxo-pyrimidin-1-yl)-2,5-dihydrofuran-2-yl]methoxy]phosphoryl]oxy-phosphoryl]oxy-phosphoryl]oxy-octadecyl-phosphinic acid formation by RP18-HPLC analysis; assay type: ADME, cell-free
[27] = Drug metabolism in citrate-stabilized human plasma assessed as [hydroxy-[hydroxy-[hydroxy-[[(2S,5R)-5-(5-methyl-2,4-dioxo-pyrimidin-1-yl)-2,5-dihydrofuran-2-yl]methoxy]phosphoryl]oxy-phosphoryl]oxy-phosphoryl] octadecyl hydrogen phosphate formation by RP18-HPLC analysis; assay type: ADME, cell-free
[28] = Drug metabolism assessed as [hydroxy-[hydroxy-[hydroxy-[[(2S,5R)-5-(5-methyl-2,4-dioxo-pyrimidin-1-yl)-2,5-dihydrofuran-2-yl]methoxy]phosphoryl]oxy-phosphoryl]oxy-phosphoryl] octadecyl hydrogen phosphate formation in presence of pig liver esterase by RP-18-HPLC analysis; assay type: ADME, Sus scrofa; details: isolated protein
[29] = Drug metabolism in human CEM/0 cells assessed as [hydroxy-[hydroxy-[hydroxy-[[(2S,5R)-5-(5-methyl-2,4-dioxo-pyrimidin-1-yl)-2,5-dihydrofuran-2-yl]methoxy]phosphoryl]oxy-phosphoryl]oxy-phosphoryl] octadecyl hydrogen phosphate formation by RP18-HPLC analysis; assay type: ADME, cell-based; details: ccrf-cem
[30] = Selectivity index, ratio of CC50 for cytotoxicity against human CEM/TK- cells to EC50 for antiviral activity against HIV-2 ROD infected in human CEM/TK- cells; assay type: toxicity, cell-based; details: read-out: Ratio CC50/EC50

Work on CCCCCCCCCCCCCCCCCCP(=O)(OCc1ccc(OC(=O)CCCC)cc1)OP(=O)(O)OP(=O)(O)OC[C@@H]1C=C[C@H](n2cc(C)c(=O)[nH]c2=O)O1 (stereo partly drawn) yielded an EC50 [1] of 0.021 µM, a selectivity ratio [2] of 452 and an EC50 [3] of 0.007 µM. The half-life [4] was 646 h and the EC50 [5] was 0.042 µM.

Compound CCCCCCCCCCCCCCCCCCOP(=O)(OCC(CC)CCCC)OP(=O)(O)OP(=O)(O)OP(=O)(O)OC[C@@H]1C=C[C@H](n2cc(C)c(=O)[nH]c2=O)O1 (stereo partly drawn) has a Retention_time [6] of 15.2 min.

For CCCCCCCCCCCCCCCCCCOP(=O)(O)OP(=O)(O)OP(=O)(O)OP(=O)(O)OC[C@@H]1C=C[C@H](n2cc(C)c(=O)[nH]c2=O)O1, the Retention_time [6] was 13.3 min.

Compound CCCCCCCCCCCCCCCCCCOP(=O)(OCCCC)OP(=O)(O)OP(=O)(O)OC[C@@H]1C=C[C@H](n2cc(C)c(=O)[nH]c2=O)O1 (stereo partly drawn) has an EC50 [1] of 0.041 µM, an EC50 [3] of 0.07 µM and an EC50 [5] of 0.032 µM.

In the case of CCCCOP(=O)(OCCCC)OP(=O)(O)OP(=O)(O)OP(=O)(O)OC[C@@H]1C=C[C@H](n2cc(C)c(=O)[nH]c2=O)O1, the Retention_time [6] is reported as 10.2 min.

For CCCCCCCCCCCCCCCCOC(=O)Oc1ccc(COP(=O)(OCc2ccc(OC(=O)CCCC)cc2)OP(=O)(O)OP(=O)(O)OP(=O)(O)OC[C@@H]2C=C[C@H](n3cc(C)c(=O)[nH]c3=O)O2)cc1 (stereo partly drawn), the Retention_time [6] was 16 min.

Work on CCCCCCCCCCCCOP(=O)(OCCCCCCCCCCCC)OP(=O)(O)OP(=O)(O)OP(=O)(O)OC[C@@H]1C=C[C@H](n2cc(C)c(=O)[nH]c2=O)O1 yielded a Retention_time [6] of 14.7 min.

In the case of CCCCCCCCCCCCCCCCCCP(=O)(OCc1ccc(OC(=O)CCCC)cc1)OP(=O)(O)OP(=O)(O)OP(=O)(O)OC[C@@H]1C=C[C@H](n2cc(C)c(=O)[nH]c2=O)O1 (stereo partly drawn), the Drug metabolism [7] is reported as “Metabolite_Detected”, the Drug metabolism [8] is reported as “Metabolite_Detected” and the Drug metabolism [9] is reported as “Metabolite_Detected”. The EC50 [5] was 0.006 µM, the Drug metabolism [10] was “Metabolite_Detected” and the Retention_time [6] was 15.2 min. The Drug metabolism [11] was “Metabolite_Detected”.

Cc1cn([C@H]2C=C[C@@H](COP(=O)(O)OP(=O)(O)OP(=O)(O)OP(=O)(O)O)O2)c(=O)[nH]c1=O gave a selectivity ratio [2] of 454 and a Retention_time [6] of 10.2 min.

CCCCCCCCCCCCCCCCCCP(=O)(O)OP(=O)(O)OP(=O)(O)OP(=O)(O)OC[C@@H]1C=C[C@H](n2cc(C)c(=O)[nH]c2=O)O1 showed a selectivity ratio [2] of 105 and a Retention_time [6] of 13.2 min.

In the case of CCCCCCCCCCCCCCCCCCOP(=O)(OCc1ccc(OC(=O)CCCC)cc1)OP(=O)(O)OP(=O)(O)OC[C@@H]1C=C[C@H](n2cc(C)c(=O)[nH]c2=O)O1 (stereo partly drawn), the EC50 [1] is reported as 0.16 µM, the selectivity ratio [2] is reported as 76 and the EC50 [3] is reported as 0.18 µM. The half-life [4] was 237 h, the EC50 [5] was 0.17 µM and the CC50 [12] was 13 µM.

In the case of CCCCCCCCCCCCCCCCCCOP(=O)(OCCCC)OP(=O)(O)OP(=O)(O)OP(=O)(O)OC[C@@H]1C=C[C@H](n2cc(C)c(=O)[nH]c2=O)O1 (stereo partly drawn), the Drug metabolism [13] is reported as “Metabolite_Detected”, the Drug metabolism [7] is reported as “Metabolite_Detected” and the t1/2 [14] is reported as 0.633 h. For the same compound, the Retention_time [6] was 14.5 min and the Drug metabolism [11] was “Metabolite_Detected”.

For CCCCCCCCCC(=O)Oc1ccc(COP(=O)(OCc2ccc(OC(=O)CCCCCCCCC)cc2)OP(=O)(O)OP(=O)(O)OP(=O)(O)OC[C@@H]2C=C[C@H](n3cc(C)c(=O)[nH]c3=O)O2)cc1, the Drug metabolism [7] was “Metabolite_Detected”, the Drug metabolism [15] was “Metabolite_Detected” and the t1/2 [14] was 0.633 h. For the same compound, the Drug metabolism [16] was “Metabolite_Detected”, the Retention_time [6] was 15.2 min and the Drug metabolism [17] was “Metabolite_Detected”. The Drug metabolism [18] was “Metabolite_Detected”, the t1/2 [19] was 0.367 h and the Drug metabolism [20] was “Metabolite_Detected”.

In the case of CCCCCCCCCC(=O)Oc1ccc(COP(=O)(OCc2ccc(OC(=O)CCCCCCCCC)cc2)OP(=O)(O)OP(=O)(O)OC[C@@H]2C=C[C@H](n3cc(C)c(=O)[nH]c3=O)O2)cc1, the half-life [4] is reported as 44 h, the Retention_time [6] is reported as 16.3 min and the half-life [21] is reported as 2.8 h. It also gave a half-life [22] of 4.92 min.

In the case of CCCCCCCCCCCCCCCCCCP(=O)(OCCCC)OP(=O)(O)OP(=O)(O)OP(=O)(O)OC[C@@H]1C=C[C@H](n2cc(C)c(=O)[nH]c2=O)O1 (stereo partly drawn), the Drug metabolism [23] is reported as “Metabolite_Notdetected”, the Drug metabolism [13] is reported as “Metabolite_Detected” and the Drug metabolism [7] is reported as “Metabolite_Detected”. For the same compound, the Drug metabolism [24] was “Metabolite_Notdetected”, the Drug metabolism [25] was “Metabolite_Notdetected” and the Drug metabolism [26] was “Metabolite_Notdetected”. The t1/2 [14] was 0.633 h, the Retention_time [6] was 14.4 min and the Drug metabolism [11] was “Metabolite_Detected”. For the same compound, the Drug metabolism [27] was “Metabolite_Notdetected”.

In the case of CCCCCCCCCCCCCCCCCCP(=O)(OCCCC)OP(=O)(O)OP(=O)(O)OC[C@@H]1C=C[C@H](n2cc(C)c(=O)[nH]c2=O)O1 (stereo partly drawn), the EC50 [1] is reported as 0.035 µM, the EC50 [3] is reported as 0.031 µM and the EC50 [5] is reported as 0.018 µM.

Work on CCCCCCCCCCCCCCCCCCP(=O)(OCC(CC)CCCC)OP(=O)(O)OP(=O)(O)OP(=O)(O)OC[C@@H]1C=C[C@H](n2cc(C)c(=O)[nH]c2=O)O1 (stereo partly drawn) yielded a Retention_time [6] of 15.1 min.

With CCCCCCCCCCCCCCCCCCOP(=O)(OCCCCCCCCCCCCCCCCCC)OP(=O)(O)OP(=O)(O)OP(=O)(O)OC[C@@H]1C=C[C@H](n2cc(C)c(=O)[nH]c2=O)O1 the Retention_time [6] was 20.7 min.

For CCCCCCCCCCCCCCCCCCOP(=O)(OCc1ccc(OC(=O)CCCC)cc1)OP(=O)(O)OP(=O)(O)OP(=O)(O)OC[C@@H]1C=C[C@H](n2cc(C)c(=O)[nH]c2=O)O1 (stereo partly drawn), the Drug metabolism [7] was “Metabolite_Detected”, the Drug metabolism [8] was “Metabolite_Detected” and the Drug metabolism [28] was “Metabolite_Detected”. For the same compound, the Drug metabolism [15] was “Metabolite_Detected”, the Retention_time [6] was 15.3 min and the Drug metabolism [11] was “Metabolite_Detected”. The Drug metabolism [27] was “Metabolite_Detected” and the Drug metabolism [29] was “Metabolite_Detected”.

Compound Cc1cn([C@H]2C=C[C@@H](CO)O2)c(=O)[nH]c1=O [STAVUDINE] has a selectivity ratio [2] of 1 and a selectivity ratio [30] of 1.
